pKd: −log10 of the molar value.
Experiments:
Assay in all cases: KINOMEscan competition binding
MAP3K12 (human) = MAP3K12 (human) (UniProt Q12852)
MYLK3 (human) = MYLK3 (human) (UniProt Q32MK0)
ERBB4 (human) = ERBB4 (human) (UniProt Q15303)
ERBB4 (human), sequence (Q15303 whole entry, looked up): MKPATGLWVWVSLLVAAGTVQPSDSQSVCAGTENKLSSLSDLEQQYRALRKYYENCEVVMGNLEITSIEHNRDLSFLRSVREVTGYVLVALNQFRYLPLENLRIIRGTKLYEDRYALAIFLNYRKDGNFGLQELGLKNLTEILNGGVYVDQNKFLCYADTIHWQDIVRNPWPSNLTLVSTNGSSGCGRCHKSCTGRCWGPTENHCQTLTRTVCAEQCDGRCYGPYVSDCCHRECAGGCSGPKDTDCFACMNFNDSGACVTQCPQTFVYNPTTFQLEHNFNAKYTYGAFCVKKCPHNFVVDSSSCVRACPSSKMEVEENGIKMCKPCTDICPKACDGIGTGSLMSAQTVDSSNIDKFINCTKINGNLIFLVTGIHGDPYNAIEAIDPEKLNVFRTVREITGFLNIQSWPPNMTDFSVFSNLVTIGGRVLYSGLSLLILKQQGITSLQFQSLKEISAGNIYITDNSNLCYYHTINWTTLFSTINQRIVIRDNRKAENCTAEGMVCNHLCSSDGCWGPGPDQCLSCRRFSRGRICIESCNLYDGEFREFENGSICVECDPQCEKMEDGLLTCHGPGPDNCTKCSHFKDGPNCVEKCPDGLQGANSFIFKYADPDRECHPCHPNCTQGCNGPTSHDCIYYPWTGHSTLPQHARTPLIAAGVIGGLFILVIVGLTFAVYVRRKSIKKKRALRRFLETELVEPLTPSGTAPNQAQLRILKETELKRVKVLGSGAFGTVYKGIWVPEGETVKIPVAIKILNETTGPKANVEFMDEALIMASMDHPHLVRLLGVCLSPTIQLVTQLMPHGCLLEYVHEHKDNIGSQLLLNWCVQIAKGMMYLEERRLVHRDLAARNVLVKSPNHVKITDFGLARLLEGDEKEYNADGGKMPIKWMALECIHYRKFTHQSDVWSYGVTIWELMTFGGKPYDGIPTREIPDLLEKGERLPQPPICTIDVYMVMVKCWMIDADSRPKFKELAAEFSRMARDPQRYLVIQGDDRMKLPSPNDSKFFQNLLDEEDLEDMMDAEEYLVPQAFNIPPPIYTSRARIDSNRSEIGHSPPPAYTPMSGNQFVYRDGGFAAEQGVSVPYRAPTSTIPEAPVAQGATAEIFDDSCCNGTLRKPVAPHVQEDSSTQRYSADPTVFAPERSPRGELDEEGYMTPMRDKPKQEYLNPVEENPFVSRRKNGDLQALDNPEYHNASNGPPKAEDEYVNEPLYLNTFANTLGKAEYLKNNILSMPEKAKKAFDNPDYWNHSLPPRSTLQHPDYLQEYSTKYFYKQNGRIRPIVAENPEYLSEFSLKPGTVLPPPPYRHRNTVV

MAP3K12 (human), sequence (Q12852 whole entry, looked up): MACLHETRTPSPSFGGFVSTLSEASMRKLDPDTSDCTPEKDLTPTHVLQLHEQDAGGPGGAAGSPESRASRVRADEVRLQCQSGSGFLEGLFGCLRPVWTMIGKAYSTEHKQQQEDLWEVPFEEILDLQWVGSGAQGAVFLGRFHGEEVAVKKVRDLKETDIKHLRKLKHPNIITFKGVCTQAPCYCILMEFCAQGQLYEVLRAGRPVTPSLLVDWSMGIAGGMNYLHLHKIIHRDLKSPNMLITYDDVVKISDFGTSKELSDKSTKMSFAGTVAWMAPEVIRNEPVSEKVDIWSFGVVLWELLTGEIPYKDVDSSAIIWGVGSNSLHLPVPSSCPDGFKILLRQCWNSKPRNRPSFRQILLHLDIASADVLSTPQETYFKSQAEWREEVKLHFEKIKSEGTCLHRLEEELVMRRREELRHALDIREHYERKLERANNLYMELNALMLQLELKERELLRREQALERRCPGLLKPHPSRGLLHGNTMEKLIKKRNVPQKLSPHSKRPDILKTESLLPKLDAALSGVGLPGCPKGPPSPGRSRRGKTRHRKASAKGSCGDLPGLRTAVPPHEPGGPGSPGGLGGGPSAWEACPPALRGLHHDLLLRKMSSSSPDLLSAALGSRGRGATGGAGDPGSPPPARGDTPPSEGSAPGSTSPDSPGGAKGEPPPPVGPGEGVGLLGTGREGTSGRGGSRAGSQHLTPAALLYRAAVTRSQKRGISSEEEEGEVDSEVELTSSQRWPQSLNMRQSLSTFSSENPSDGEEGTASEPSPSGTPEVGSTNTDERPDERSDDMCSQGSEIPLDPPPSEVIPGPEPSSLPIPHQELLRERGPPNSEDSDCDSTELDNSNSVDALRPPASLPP
MYLK3 (human), sequence (Q32MK0 whole entry, looked up): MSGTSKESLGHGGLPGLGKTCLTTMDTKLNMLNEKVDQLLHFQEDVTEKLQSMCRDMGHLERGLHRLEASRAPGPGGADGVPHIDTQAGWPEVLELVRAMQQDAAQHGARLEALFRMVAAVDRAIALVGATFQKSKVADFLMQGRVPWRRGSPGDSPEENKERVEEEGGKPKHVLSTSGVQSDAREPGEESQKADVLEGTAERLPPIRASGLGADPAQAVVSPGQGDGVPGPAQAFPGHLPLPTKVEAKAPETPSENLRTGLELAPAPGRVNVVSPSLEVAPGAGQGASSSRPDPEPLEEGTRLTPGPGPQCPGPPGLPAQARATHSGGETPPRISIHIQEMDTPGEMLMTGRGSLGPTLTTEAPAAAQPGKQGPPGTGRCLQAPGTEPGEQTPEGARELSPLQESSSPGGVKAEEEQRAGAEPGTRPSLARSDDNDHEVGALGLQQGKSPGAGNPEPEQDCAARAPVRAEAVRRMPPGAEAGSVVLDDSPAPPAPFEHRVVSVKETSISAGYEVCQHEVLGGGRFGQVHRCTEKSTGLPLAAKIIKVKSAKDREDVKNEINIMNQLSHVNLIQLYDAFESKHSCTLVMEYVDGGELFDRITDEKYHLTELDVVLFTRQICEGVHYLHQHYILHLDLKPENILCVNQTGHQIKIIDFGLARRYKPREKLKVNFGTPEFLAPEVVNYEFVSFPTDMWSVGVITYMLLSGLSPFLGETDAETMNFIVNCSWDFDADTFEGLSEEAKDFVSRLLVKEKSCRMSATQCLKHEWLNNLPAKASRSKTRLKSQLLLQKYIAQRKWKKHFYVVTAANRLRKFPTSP

| pKd (MAP3K12 (human)) | pKd (MYLK3 (human)) | pKd (ERBB4 (human)) | Compound |
| --- | --- | --- | --- |
| < 5.00 | < 5.00 |  | COCC(=O)NC/C=C/c1ccc2ncnc(Nc3ccc(Oc4ccc(C)nc4)c(C)c3)c2c1 |
|  | < 5.00 | < 5.00 | Nc1nc(Nc2ccc(S(N)(=O)=O)cc2)nn1C(=O)c1c(F)cccc1F |
|  | < 5.00 |  | CCOc1cc2ncc(C#N)c(Nc3ccc(F)c(Cl)c3)c2cc1NC(=O)/C=C/CN(C)C |
| < 5.00 | < 5.00 | < 5.00 | NC(=O)c1ccc(-c2nc(-c3ccccn3)c(-c3ccc4c(c3)OCO4)[nH]2)cc1 |
| < 5.00 | < 5.00 | < 5.00 | Oc1ccc(-c2nc(-c3ccc(F)cc3)c(-c3ccncc3)[nH]2)cc1 |

— the kinase profiling compilation of Christmann-Franck et al. (2016)
